Data from patent publication US20060189539A1, “Novel GnRH analogues with antitumour effects and pharmaceutical compositions thereof” (priority 1994, published 2006).

Assays:
[1] = system: MCF-7 and MDA-MB-231 cell lines; conditions: 30 μM
Experimental: The procedure of treatment was as follows. After trypsinization the cells, 400,000 cells of MCF-7, MDA-MB-231 human mammary carcinoma, PC3 human prostate carcinoma or Ishikawa human endometrium tumour each were passed into Petri dishes of 10 cm in diameter. Starting from the day following transfer, the cells were treated with the substances to be tested in solution prepared with the nutrient medium during the exponential growth phase. The cultures were treated with 1 to 50 μM (calculated for the total volume of the culture) of MI-1544 GnRH antagonist, MI-1892 chicken GnRH antagonist or SJ-1004 GnRH antagonist analogues as well as synthetic lamprey GnRH-III hormone in every two days and the cell count was determined on the 7th day.

MDA-MB-231 xenograft = test: In vivo antitumour effect on MDA-MB-231 xenograft; parameters: species or system immunosuppressed CBA/Ca mice
Experimental: The immunosuppression of mice was carried out by using the method of Steel et al. (1978).
CBA/Ca female mice of about 6 weeks old were thymectomized and then, after one week, they were irradiated with 60Co (whole body irradiation; the lethal dose is 9.5 Gray). Within 24 hours 3 to 5×10^5 myelocytes were injected to the animals. Beneath the skin of the immunosuppressed mice 2×10^7 tumour cells or, in the case of later passages, about 2 mm^3 of tumour cells or in the case of later, additional passages about 2 mm^3 of tumour pieces were implanted. […] The treatment with steroid hormone was stopped by at least one week before beginning the investigation.
Recent investigations have begun on 28 animals bearing MCF-7 xenograft .and on 28 animals bearing MDA-MB-231 xenograft. On animals bearing MCF-7 tumour the treatment was commenced in the 5th week following xeno-transplantation; the tumour volume was 205 to 225 mm^3. On animals bearing MDA-MB-231 tumour, the treatment was started in the 4th week after xeno-transplantation with a tumour volume of 140 to 150 mm^3. […] The control groups were daily treated with physiological saline s.c. (Each treated group consisted of 7 animals.)
A more recent study was started on 28 animals bearing. MDA-MB-231 xenograft. The treatment was begun in the 4th or 5th week following xenotransplantation. The tumour volume was 0.165 to 0.194 cm3. […] (For treatment of the control group, see the preceding Examples). Each group consisted of 7 animals.

[2] = system: Ishikawa endometrium tumour cell culture; test: Inhibition of colony formation (dose-survival), Example 48; assay type: cell-based, human; conditions: within the dose range used (1-50 μM)
Source text: (§1) MCF-7 human mammary carcinoma cell line was stabilized in 1973 by Soule et al. from the pleural fluid of a patient suffering from mammary carcinoma. MDA-MB-231 human mammary carcinoma cell line was isolated and stabilized by Cailleau et al. in 1974 similarly from pleural fluid. Both cell lines grow in monolayer. MCF-7 and MDA-MB-231 human mammary carcinoma cell lines are maintained in plastic flasks (Greiner), in Dulbecco-modified Eagle-MEM (DMEM, GIBCO) liquid nutrient medium containing 10% of fetal calf serum. MCF-7 cell line is estradiol receptor (ER)-positive containing proteins specifically binding GnRH. Thus, it represents, a useful model system for investigating the direct effect of GnRH mediated by the GnRH receptor. Being ER-negative and GnRH receptor-positive, MDA-MB-231 cell line is similarly suitable to study the direct effect of GnRH. PC3 human prostate carcinoma cell line was stabilized in cell culture by Kaighn et al. in 1979. The cells are of epithelial type and form compact colonies in clonogenic assays. The Ishikawa cell line originates from human endometrial adenocarcinoma [M. Nishida et al.: Acta Obstet. Gynecol. Jpn. 37, 1103-1111 (1985)], it is epithelial in its character and contains steroid-as well as GnRH receptors.
(§2) The examination gives accurate information about the cell-damaging effect of the substance tested as a function of varying doses. The treatment was carried out once; the colonies formed from the surviving cells were counted after 8-12 days. […] A part of the arrested cells again entered the cycle, an other part of them might be destroyed (apoptosis). […] In the case of a dose-response investigation, colonies containing less than 15 cells were not counted. 300 cells were put into each Petri dishes of 3.5 cm in diameter. The treatment was once carried out 24 hours after setting, then the colonies formed were counted after 8-12 days. The cells were treated once after 24 hours with 1-50 μM of various GnRH analogues of Examples above or with 1-50 μM of GnRH-III, respectively. The percentages of inhibition obtained on MCF-7, MDA-MB-231, PC3 and Ishikawa cells, respectively, together with the dose of the active agent used are shown in Table VIII.

[3] = system: PC3 prostate tumour cell culture; test: as above; assay type: cell-based, human; conditions: 50 μM
Source text: as §1, §2

[4] = system: LH release from rat hypophysis; conditions: superfusion; cited from earlier work
ovulation of female rats = conditions: prolonged treatment for three cycles, even in high doses; cited from earlier work
[5] = system: MCF-7 human mammary carcinoma cell line; test: Inhibition of colony formation (dose-survival), Example 48; assay type: cell-based; conditions: 50 μM
MCF-7 cells = test: Inhibition of cell division (cell count), Example 49; assay type: cell-based, human; conditions: MCF-7 (2x); 30 μM
Experimental: After being treated with trypsin, 300,000 each of MCF-7, MDA-MB-231, PC3 or Ishikawa cells, respectively, were passed into Petri dishes of 10 cm in diameter. Starting from the day following the setting, the cells were treated with 1-50 μM of the GnRH analogue in the exponential growth phase. During the experiment lasting for 5 days, the cells were treated in every two days with the peptide hormone dissolved in the nutrient medium, then the cell count was determined on the sixth day.

[6] = 1 × 100 μg daily s.c., week 6 (Table V)

| Compound | Inhibition of cell proliferation [1] | Effect on the rate of tumour growth (MDA-MB-231 xenograft; 100 μg daily s.c.) | Tumour volume as control (%) (MDA-MB-231 xenograft; 1 × 100 μg daily s.c., week 4) | Tumour volume as control (%) (MDA-MB-231 xenograft; 1 × 100 μg daily s.c., week 6) | Inhibition % (MDA-MB-231 xenograft; [6]) [%] | Tumour volume as control (%) (MDA-MB-231 xenograft; [6]) | Inhibition of colony formation [2] | % Inhibition of colony formation [3] [%] | LH-releasing effect compared with human GnRH [4] | Inhibition of ovulation (ovulation of female rats) | % Inhibition of colony formation [5] [%] | % Inhibition of cell proliferation (MCF-7 cells) [%] |
| --- | --- | --- | --- | --- | --- | --- | --- | --- | --- | --- | --- | --- |
| NCCCC[C@H](NC(=O)[C@H](Cc1c[nH]c2ccccc12)NC(=O)[C@H](CC(=O)O)NC(=O)[C@H](Cc1c[nH]cn1)NC(=O)[C@H](CO)NC(=O)[C@H](Cc1c[nH]c2ccccc12)NC(=O)[C@H](Cc1c[nH]cn1)NC(=O)[C@@H]1CCC(=O)N1)C(=O)N1CCC[C@H]1C(=O)NCC(N)=O [GnRH-III, reference compound] | 40-39% | did not inhibit the rate of tumour growth | 85 | 85 | 15 | 85 | did not inhibit | 21 | about thousand times weaker | did not inhibit the ovulation |  |  |
| Ac-D-Trp1,3,D-Cpa2,{Lys[n-poly(N-vinyl pyrrolidone-co-maleic acid)-]}5,[a-Asp(DEA)]6,D-Ala10-GnRH [Compound P-1892] |  |  |  |  |  |  |  |  |  |  | 26 | 0 |
